# Assays:
# [1] = test system: plasma protein; assay: Plasma protein binding (rapid equilibrium device), human plasma; type: in vitro ADME; conditions: 1 µM
# Protocol: mixer (Eppendorf). Acetonitrile and caffeine were dispensed using a Mantis Formulatrix. Then samples were centrifuged for 20 min at 2.270 x g at 4 °C and the supernatants were transferred to 96-well Greiner V-bottom plates. Peak areas of each compound and of the internal standard were analyzed using the MultiQuant 3.0 software (AB Sciex). Peak areas of the respective compound were normalized to the internal standard peak area and to the respective peak areas at time point 0 min: (C/D)/(A/B) with A: peak area of the compound at time point 0 min, B: peak area of the internal standard at time point 0 min, C: peak area of the compound at the respective time point, D: peak area of the internal standard at the respective time point. […]
# Assessment of plasma protein binding
# Plasma protein binding was assessed using the rapid equilibrium device (RED) system from ThermoFisher. Compounds were dissolved in DMSO. […]
# high plasma protein binding. Compounds were diluted in murine plasma (from CD-1 mice, pooled) or in human plasma (human donors, both genders, pooled) to a final concentration of 1 µM. Dialysis buffer and plasma samples were added to the respective chambers according the manufacturer’s protocol. The RED plate was sealed with a tape and incubated at 37 °C for 2 hours at 800 rpm on an Eppendorf MixMate vortex-mixer. Then samples were withdrawn from the respective chambers. To 25 µL of each dialysis sample, 25 µL of plasma and to 25 µL of plasma sample, 25 µL of dialysis buffer was added. Then 150 µL ice-cold extraction solvent (ACN/H2O (90:10) containing 12.5 ng/mL caffeine as internal standard) was added. Samples were incubated for 30 min on ice. Then samples were centrifuged at 4 °C at 2270 x g for 10 min.
# Supernatants were transferred to Greiner V-bottom 96-well plates and sealed with a tape. The […]
# percentage of bound compound was calculated as follows:
# (1) % free = (concentration buffer chamber / concentration plasma chamber) *100 […]
# Samples were analyzed using an Agilent 1290 Infinity II HPLC system coupled to an AB Sciex QTrap 6500plus mass spectrometer. LC conditions were as follows: column: Agilent […]
# Zorbax Eclipse Plus C18, 50x2.1 mm, 1.8 µm; temperature: 30 °C; injection volume: 5 µL per […]
# sample; flow rate: 700 µL/min. Samples were run under acidic and buffered conditions.
# Solvents for acidic conditions: A1: water + 0.1% formic acid; solvent B1: 95% acetonitrile/5% […]
# H2O + 0.1% formic acid; solvents for buffered conditions: A2: 95% water + 5% acetonitrile + […]
# 5 mM ammonium acetate + 40 µL/L acetic acid; B2: 95% acetonitrile + 5% water + 5 mM […]
# ammonium acetate + 40 µL/L acetic acid. The same gradient was applied for acidic and […]
# buffered conditions: 99% A at 0 min, 99% A until 1 min, 99% - 0% A from 1 min to 4.0 min, […]
# 0% A until 5.0 min. Mass transitions for controls and compounds are depicted in the following […]
# [2] = test system: P. aeruginosa PAO1; assay: Invasion assay of P. aeruginosa PAO1 into H1299 cells; type: cell-based, Pseudomonas aeruginosa
# Protocol: P. aeruginosa is able to invade non‐phagocytic cells via a lipid zipper mechanism.[10] Binding of LecA to the glycosphingolipid Gb3 followed by LecA‐induced receptor clustering plays a crucial role in this process. The LecA ligand 4‐nitrophenyl α‐ D‐galactopyranoside (PNPG) has been previously shown to interfere with these events at a high concentration of 10 mM leading to a reduction of bacterial invasiveness to 30–60 % as compared to untreated bacteria (100 % invasiveness).[10, 31] For invasion assays, H1299 cells were incubated with P. aeruginosa in presence and absence of LecA inhibitors, followed by killing of extracellular bacteria with the antibiotic amikacin. Then, all intracellular bacteria were released by lysis of the human cells and viable bacteria were quantified by plating. To assess the impact of LecA inhibitors on the invasiveness, the influence of the divalent LecA inhibitor L2 on bacterial invasion into host cells was evaluated and compared to PNPG. […] In contrast, the divalent LecA ligand L2 achieved an invasion decrease to 44 % already at 100 μM (Figure 5c). L2 was thus able to reach a similar reduction of invasion at a 100‐fold lower concentration than the one needed for PNPG. […]
# lectin-inhibitor solution for 24 h at 37 °C. In order to depict exactly the same position for each wound, marker lines were drawn on the bottom of the 12-well plates for each well. The samples were imaged with an EVOS microscope (PEQLAB by VWR Life Sciences, Avantor […]
# Excel. […]
# A chromosomally GFP-tagged Gentamicin-resistant Pseudomonas aeruginosa PAO1 strain was cultured (LB medium supplemented with 60 µg/mL Gentamicin, 37 °C, 180 rpm, 16 h) and invasion assays were performed in analogy to Eierhoff et al..[13] 1.5 x 10^4 H1299 cells per well were seeded one day prior to the invasion assay in a 96-well plate with flat bottom. An […]
# overnight culture of P. aeruginosa was centrifuged for 5 min at 3000 x g, washed with PBS (- /-) and re-suspended in RPMI 1640 medium. The newly synthesized divalent LecA ligand L2 was compared to 4-nitrophenyl α-D-galactopyranoside (PNPG; Sigma-Aldrich, Chemie GmbH, Darmstadt, Germany). […]
# Subsequently, cells were washed three times with DPBS and lysed by incubation with 0.25% (v/v) Triton X-100 (Carl Roth GmbH & Co. KG, Karlsruhe, Germany) for 5 min at 37 °C and 180 rpm. […] Bacterial colonies were counted the next day. […] The invasion rate was calculated as the number of intracellularly localized bacteria divided by the total number of non-treated bacteria, bacteria that were not treated with any ligands and neither amikacin, thus the number of P. aeruginosa that successfully invaded or stayed attached to the host cells. Experiments were repeated independently at least four times (N ≥ 4) and evaluated […]
structure (smiles),measurement,setting,value
O=C(CCc1ccc(O[C@@H]2O[C@H](CO)[C@H](O)[C@H](O)[C@H]2O)cc1)Nc1ccc(CCc2ccc(NC(=O)CCc3ccc(O[C@@H]4O[C@H](CO)[C@H](O)[C@H](O)[C@H]4O)cc3)cc2S(=O)(=O)O)c(S(=O)(=O)O)c1 [Compound L2],PPB Human,[1],38.5 ± 12.4%
same,Lower concentration than PNPG for similar reduction of invasion,[2]; 100 μM L2 vs 10 mM PNPG,100 fold
same,Bacterial invasiveness (untreated bacteria 100 %),"[2]; 100 μM inhibitor, PAO1 into H1299 cells, N≥4",44%
